“And” between values parts separate entries of the source, which are not always exact repeats. Equal entries are not always repeated.
Test system: Brassica plants comprising mutant AHAS alleles
Assay: Field trial, pre-planting treatment (0, 10, 20, 30 g a.i./ha), two locations in Canada: ERG, EST1, EST2, PPTOX, VIG1, VIG2, VIG3 scores
Type: in vivo, Brassica napus
Settings: for vigor3 (VIG3) score, Av: Elite parent line plants
From the text: Tests were set up and conducted to asses the growth and performance of plants comprising AHAS full knock-out alleles, and to further analyze the correlation between the presence of full knockout and missense AHAS genes in Brassica plants and plant growth and herbicide tolerance of the Brassica plants in the field. To this end, the Brassica plants identified in Example 1 and 2 were backcrossed two times with an elite parent line, and subsequently selfed twice to obtain homozygous plants (BC2S2). Plants were grown as row plots in a split plot design with three replicates (main plots=herbicide treatments, subplots=genotypes) at two locations in Canada. Treatment pre-planting was carried out on the soil about two days before sowing with a dose of 0 (treatment A), 10 (treatment B), 20 (treatment C) or 30 (treatment D) g a.i./ha of thiencarbazone methyl. Herbicide tolerance was measured by scoring for different parameters. The parameter emergence (ERG) was scored at the cotyledon stage on a scale 1-9, where 1 means late emergence and 9 means early emergence. Establishment was scored 14 days after sowing (EST1) and 21 days after sowing (EST2). Scores were from 1 to 9, where 1 is the worst establishment (least plants that emerged), and 9 is the best establishment (most plants emerged). Phytotoxicity (PPTOX) was determined after establishment. Plants were evaluated on a scale of 1 to 9, where 1=completely yellowing, 5=50% of plant is yellow and 9=no yellowing. The vigor scores (see above) were determined at 1-2 leaf stage (VIG1), 7 days after VIG1 (VIG2) and 14 days after VIG1 (VIG3). The average values (Av) and standard deviations (SD) of the scores for the different parameters are represented in Table 7a-g.
Further, the contribution of the knock-out allele to herbicide tolerance conferred by the missense allele was calculated. First, the scores were corrected for a possible effect of the growth per se, independent of herbicide treatment. To this end, the scores for treatments B, C and D were divided by the scores for treatment A for the same genotype and for the same parameter (corrected herbicide tolerance scores). Next, the effect of the knock-out allele to these corrected herbicide tolerance scores obtained by the missense allele was calculated. Therefore, the corrected herbicide tolerance scores for the missense—knock-out allele combination was divided by the corrected herbicide tolerance scores for the missense allele—wild-type combination. In case the knock-out allele has no effect on herbicide tolerance conferred by the missense allele, this ratio should be 1. In case the knock-out allele positively contributes to the herbicide tolerance conferred by the missense allele, this ratio should be higher than 1. The results for the contribution of the knock-out allele to herbicide tolerance conferred by the missense allele as calculated above are shown in table 8.

[1] = AHAS1 WT/AHAS3 HETO104, 10 g a.i./ha pre-planting (B), Location A
[2] = AHAS1 WT/AHAS3 HETO104, 10 g a.i./ha pre-planting (B), Location B
[3] = AHAS1 WT/AHAS3 HETO104, 20 g a.i./ha pre-planting (C), Location A
[4] = AHAS1 WT/AHAS3 HETO104, 20 g a.i./ha pre-planting (C), Location B
[5] = AHAS1 WT/AHAS3 HETO104, 30 g a.i./ha pre-planting (D), Location A
[6] = AHAS1 WT/AHAS3 HETO104, 30 g a.i./ha pre-planting (D), Location B
[7] = AHAS1 WT/AHAS3 HETO111, 10 g a.i./ha pre-planting (B), Location A
[8] = AHAS1 WT/AHAS3 HETO111, 10 g a.i./ha pre-planting (B), Location B
[9] = AHAS1 WT/AHAS3 HETO111, 20 g a.i./ha pre-planting (C), Location A
[10] = AHAS1 WT/AHAS3 HETO111, 20 g a.i./ha pre-planting (C), Location B
[11] = AHAS1 WT/AHAS3 HETO111, 30 g a.i./ha pre-planting (D), Location A
[12] = AHAS1 WT/AHAS3 HETO111, 30 g a.i./ha pre-planting (D), Location B
[13] = AHAS1 WT/AHAS3 WT, 10 g a.i./ha pre-planting (B), Location A
[14] = AHAS1 WT/AHAS3 WT, 10 g a.i./ha pre-planting (B), Location B
[15] = AHAS1 WT/AHAS3 WT, 20 g a.i./ha pre-planting (C), Location A
[16] = AHAS1 WT/AHAS3 WT, 20 g a.i./ha pre-planting (C), Location B
[17] = AHAS1 WT/AHAS3 WT, 30 g a.i./ha pre-planting (D), Location A
[18] = AHAS1 WT/AHAS3 WT, 30 g a.i./ha pre-planting (D), Location B
[19] = Elite parent line, 10 g a.i./ha pre-planting (B), Location A
[20] = Elite parent line, 10 g a.i./ha pre-planting (B), Location B
[21] = Elite parent line, 20 g a.i./ha pre-planting (C), Location A
[22] = Elite parent line, 20 g a.i./ha pre-planting (C), Location B
[23] = Elite parent line, 30 g a.i./ha pre-planting (D), Location A
[24] = Elite parent line, 30 g a.i./ha pre-planting (D), Location B
[25] = Elite parent line, treatment B 10 g a.i./ha pre-planting, Location A
[26] = Elite parent line, treatment B 10 g a.i./ha pre-planting, Location B
[27] = Elite parent line, treatment C 20 g a.i./ha pre-planting, Location A
[28] = Elite parent line, treatment C 20 g a.i./ha pre-planting, Location B
[29] = Elite parent line, treatment D 30 g a.i./ha pre-planting, Location A
[30] = Elite parent line, treatment D 30 g a.i./ha pre-planting, Location B
[31] = Location A, treatment B 10 g a.i./ha pre-planting, ratio >1 = positive contribution

## COC(=O)c1csc(C)c1S(=O)(=O)NC(=O)n1nc(OC)n(C)c1=O [thiencarbazone-methyl, methyl 4-[(4,5-dihydro-3-methoxy-4-methyl-5-oxo-1H-1,2,4-triazol-1-yl)carbonylsulfamoyl]-5-methylthiophene-3-carboxylate]
[1]
  phytotoxicity (PPTOX) score, Av: 1.33
  vigor1 (VIG1) score, Av: 1.33
  vigor2 (VIG2) score, Av: 1.00
[2]
  establishment (EST2) score, Av: 3.33
  phytotoxicity (PPTOX) score, Av: 1.33
  vigor2 (VIG2) score, Av: 1.33
[3]
  establishment (EST2) score, Av: 1.00
  phytotoxicity (PPTOX) score, Av: 1.00
  vigor1 (VIG1) score, Av: 1.00
  vigor2 (VIG2) score, Av: 1.00
[4]
  establishment (EST2) score, Av: 2.33
  phytotoxicity (PPTOX) score, Av: 1.00
  vigor1 (VIG1) score, Av: 1.33
  vigor2 (VIG2) score, Av: 1.00
[5]
  establishment (EST2) score, Av: 1.00
  phytotoxicity (PPTOX) score, Av: 1.00
  vigor1 (VIG1) score, Av: 1.00
  vigor2 (VIG2) score, Av: 1.00
[6]
  establishment (EST2) score, Av: 1.00
  phytotoxicity (PPTOX) score, Av: 1.00
  vigor1 (VIG1) score, Av: 1.00
  vigor2 (VIG2) score, Av: 1.00
[7]
  establishment (EST2) score, Av: 5.33 and 5.67
  vigor1 (VIG1) score, Av: 6.00
  vigor2 (VIG2) score, Av: 7.00
[8]
  phytotoxicity (PPTOX) score, Av: 6.00 and 6.33
  vigor1 (VIG1) score, Av: 6.33 and 6.00
  vigor2 (VIG2) score, Av: 7.00
[9]
  establishment (EST2) score, Av: 4.67
  phytotoxicity (PPTOX) score, Av: 5.00
  vigor1 (VIG1) score, Av: 5.00
  vigor2 (VIG2) score, Av: 6.33
[10]
  establishment (EST2) score, Av: 4.67
  vigor1 (VIG1) score, Av: 5.00
  vigor2 (VIG2) score, Av: 6.00 and 5.67
[11]
  establishment (EST2) score, Av: 5.00
  phytotoxicity (PPTOX) score, Av: 5.00
  vigor1 (VIG1) score, Av: 5.00
  vigor2 (VIG2) score, Av: 5.67 and 5.33
[12]
  phytotoxicity (PPTOX) score, Av: 4.00
  vigor1 (VIG1) score, Av: 3.67
  vigor2 (VIG2) score, Av: 4.33 and 5.00
[13]
  establishment (EST2) score, Av: 1.00 and 2.00
  phytotoxicity (PPTOX) score, Av: 1.00
  vigor1 (VIG1) score, Av: 1.00 and 1.33
  vigor2 (VIG2) score, Av: 1.00
[14]
  establishment (EST2) score, Av: 4.33 and 5.00
  phytotoxicity (PPTOX) score, Av: 1.33 and 1.67 and 2.33
  vigor1 (VIG1) score, Av: 3.00
  vigor2 (VIG2) score, Av: 1.67 and 2.00
[15]
  establishment (EST2) score, Av: 1.00
  phytotoxicity (PPTOX) score, Av: 1.00
  vigor1 (VIG1) score, Av: 1.00
  vigor2 (VIG2) score, Av: 1.00
[16]
  establishment (EST2) score, Av: 3.67 and 4.00 and 3.00
  phytotoxicity (PPTOX) score, Av: 1.00 and 1.33
  vigor1 (VIG1) score, Av: 1.33
  vigor2 (VIG2) score, Av: 1.33 and 1.67
[17]
  establishment (EST2) score, Av: 1.00
  phytotoxicity (PPTOX) score, Av: 1.00
  vigor1 (VIG1) score, Av: 1.00
  vigor2 (VIG2) score, Av: 1.00
[18]
  establishment (EST2) score, Av: 1.33 and 2.00
  phytotoxicity (PPTOX) score, Av: 1.00 and 2.00
  vigor1 (VIG1) score, Av: 1.33
  vigor2 (VIG2) score, Av: 1.33 and 1.00
10 g a.i./ha (treatment B) pre-planting, Location A
  vigor3 (VIG3) score, Av: 1.00
10 g a.i./ha (treatment B) pre-planting, Location B
  vigor3 (VIG3) score, Av: 3.67
20 g a.i./ha (treatment C) pre-planting, Location A
  vigor3 (VIG3) score, Av: 1.00
20 g a.i./ha (treatment C) pre-planting, Location B
  vigor3 (VIG3) score, Av: 1.00
30 g a.i./ha (treatment D) pre-planting, Location A
  vigor3 (VIG3) score, Av: 1.00
30 g a.i./ha (treatment D) pre-planting, Location B
  vigor3 (VIG3) score, Av: 1.00
[19]
  establishment (EST2) score, Av: 2.00
  phytotoxicity (PPTOX) score, Av: 1.00
  vigor1 (VIG1) score, Av: 1.00
  vigor2 (VIG2) score, Av: 1.00
[20]
  establishment (EST2) score, Av: 6.00
  phytotoxicity (PPTOX) score, Av: 3.67
  vigor1 (VIG1) score, Av: 4.00
  vigor2 (VIG2) score, Av: 4.00
[21]
  establishment (EST2) score, Av: 2.33
  phytotoxicity (PPTOX) score, Av: 1.00
  vigor1 (VIG1) score, Av: 1.33
  vigor2 (VIG2) score, Av: 1.00
[22]
  establishment (EST2) score, Av: 4.67
  phytotoxicity (PPTOX) score, Av: 1.67
  vigor1 (VIG1) score, Av: 2.00
  vigor2 (VIG2) score, Av: 2.00
[23]
  establishment (EST2) score, Av: 2.00
  phytotoxicity (PPTOX) score, Av: 1.00
  vigor1 (VIG1) score, Av: 1.00
  vigor2 (VIG2) score, Av: 1.00
[24]
  establishment (EST2) score, Av: 4.00
  phytotoxicity (PPTOX) score, Av: 1.00
  vigor1 (VIG1) score, Av: 1.33
  vigor2 (VIG2) score, Av: 1.00
[25]
  emergence (ERG) score Av: 2.00
  establishment (EST1) score Av, 14 days after sowing: 2.00
[26]
  emergence (ERG) score Av: 5.00
  establishment (EST1) score Av, 14 days after sowing: 6.67
[27]
  emergence (ERG) score Av: 2.33
  establishment (EST1) score Av, 14 days after sowing: 2.33
[28]
  emergence (ERG) score Av: 4.33
  establishment (EST1) score Av, 14 days after sowing: 4.67
[29]
  emergence (ERG) score Av: 2.00
  establishment (EST1) score Av, 14 days after sowing: 2.00
[30]
  emergence (ERG) score Av: 3.00
  establishment (EST1) score Av, 14 days after sowing: 4.00
[31]
  relative contribution of HETO104 (AHAS3 KO) to herbicide tolerance conferred by HETO108 (AHAS1 missense): ERG: 0.86
  relative contribution of HETO104 (AHAS3 KO) to herbicide tolerance conferred by HETO108 (AHAS1 missense): EST1: 0.91
  relative contribution of HETO104 (AHAS3 KO) to herbicide tolerance conferred by HETO108 (AHAS1 missense): EST2: 0.95
  relative contribution of HETO104 (AHAS3 KO) to herbicide tolerance conferred by HETO108 (AHAS1 missense): PPTOX: 0.83
  relative contribution of HETO104 (AHAS3 KO) to herbicide tolerance conferred by HETO108 (AHAS1 missense): VIG1: 0.90
  relative contribution of HETO104 (AHAS3 KO) to herbicide tolerance conferred by HETO108 (AHAS1 missense): VIG2: 0.88
  relative contribution of HETO104 (AHAS3 KO) to herbicide tolerance conferred by HETO108 (AHAS1 missense): VIG3: 0.96
  relative contribution of HETO112 (AHAS1 KO) to herbicide tolerance conferred by HETO111 (AHAS3 missense): ERG: 0.85
  relative contribution of HETO112 (AHAS1 KO) to herbicide tolerance conferred by HETO111 (AHAS3 missense): EST1: 0.92
  relative contribution of HETO112 (AHAS1 KO) to herbicide tolerance conferred by HETO111 (AHAS3 missense): EST2: 1.04
  relative contribution of HETO112 (AHAS1 KO) to herbicide tolerance conferred by HETO111 (AHAS3 missense): PPTOX: 1.06
  relative contribution of HETO112 (AHAS1 KO) to herbicide tolerance conferred by HETO111 (AHAS3 missense): VIG1: 1.10

— patent publication US20120255051A1, “HERBICIDE TOLERANT PLANTS” (priority 2009, published 2012)
